Reference: publication PMC6801822, “The Bactericidal Activity of Temporin Analogues Against Methicillin Resistant Staphylococcus aureus” (International Journal of Molecular Sciences, 2019)
Converted amounts (≈) assume the structure as drawn. Read-outs that look alike come from different tables or passages of the source. Non-standard residues stand in square brackets, D forms with d. Residues, ends and D or L forms follow the SMILES beside them. AEEA = NCCOCCOCC(=O)O; βAla = NCCC(=O)O

Assays:
[1] = system: S. aureus USA300; conditions: for MIC: USA300, 24 h
Protocol: (§1) Antimicrobial activity of peptides was analyzed through determination of MIC parameter according to the standard microdilution technique performed on 96-well plates. Mueller-Hinton broth (MHB, Sigma Aldrich, St. Louis, MO, USA) was used as the working medium for all bacterial strains. Briefly, inoculum was prepared from freshly grown cultures of bacteria being at their exponential phase of growth. Each well of 96-well plates containing 100 µL of serially diluted peptides in PBS at desired concentration was inoculated with 100 µL of 10^5 CFU/mL of bacterial suspension. Then plates were incubated overnight 37 °C and absorbance was read at 600 nm after 24 h. Wells without peptide were treated as the positive control, while uninoculated MHB was defined as the negative control. All measurements were run in triplicates.

[2] = system: S. aureus ATCC 25923; conditions: ATCC 25923, 24 h
Protocol: as §1

[3] = system: S. aureus Newman; conditions: Newman, 24 h
Protocol: as §1

[4] = system: S. epidermidis ATCC 12228; conditions: ATCC 12228, 24 h
Protocol: as §1

[5] = cited from earlier work
Source text: The efficient antibacterial activity of the DAL-PEG-DK5 conjugate may be due to the fact that it has a higher cationic charge than DK5 (+7 vs. +6, respectively). However, a α-helicity must also play an important role in this case. According to a common view about the mechanism underlying the antimicrobial activity of AMPs, formation of hel ...

[6] = system: S. aureus USA300; test: microbe, parasite or virus in culture; conditions: Staphylococcus aureus, MRSA / USA300, 24 h
Protocol: as §1

[7] = system: intracellular MRSA clinical isolate; conditions: cited from earlier work; for MIC: MRSA clinical isolate
Source text: Cumulatively, these findings encouraged us to test the ability of the peptide conjugate to kill invasive intracellular MRSA. […] In addition, ...

CC[C@H](C)[C@H](NC(=O)COCCOCCNC(=O)[C@H](Cc1c[nH]cn1)NC(=O)CCNC(=O)[C@H](Cc1c[nH]cn1)NC(=O)CCNC(=O)[C@H](Cc1c[nH]cn1)NC(=O)CCN)C(=O)N[C@@H](CCCCN)C(=O)N[C@@H](CCCCN)C(=O)N[C@H](C(=O)N[C@@H](CC(C)C)C(=O)N[C@@H](CO)C(=O)N[C@H](CCCCN)C(=O)N[C@H](C(=O)N[C@@H](CCCCN)C(=O)N[C@@H](CCCCN)C(=O)N[C@@H](CC(C)C)C(=O)N[C@@H](CC(C)C)C(N)=O)[C@@H](C)CC)[C@@H](C)CC [CAR3-PEG-DK5] (H-[βAla]H[βAla]H[βAla]H[AEEA]IKKILS[dK]IKKLL-NH2; N-terminus assumed)
MIC [1]: >190 µg/mL
MIC [2]: >190 µg/mL
MIC [3]: >190 µg/mL
MIC [4]: 110 µg/mL (≈ 50.1 µM)

CC[C@H](C)[C@H](NC(=O)COCCOCCNC(=O)[C@H](Cc1c[nH]cn1)NC(=O)CCN)C(=O)N[C@@H](CCCCN)C(=O)N[C@@H](CCCCN)C(=O)N[C@H](C(=O)N[C@@H](CC(C)C)C(=O)N[C@@H](CO)C(=O)N[C@H](CCCCN)C(=O)N[C@H](C(=O)N[C@@H](CCCCN)C(=O)N[C@@H](CCCCN)C(=O)N[C@@H](CC(C)C)C(=O)N[C@@H](CC(C)C)C(N)=O)[C@@H](C)CC)[C@@H](C)CC [CAR-PEG-DK5] (H-[βAla]H[AEEA]IKKILS[dK]IKKLL-NH2; N-terminus assumed)
MIC [1]: >190 µg/mL
MIC [2]: >190 µg/mL
MIC [3]: >190 µg/mL
MIC [4]: 40 µg/mL (≈ 22.5 µM)

CC[C@H](C)[C@H](NC(=O)COCCOCCNC(=O)CNC(=O)[C@@H]1CCCN1C(=O)[C@H](CCC(=O)O)NC(=O)[C@H](CC(C)C)NC(=O)CNC(=O)[C@@H](N)CCC(=O)O)C(=O)N[C@@H](CCCCN)C(=O)N[C@@H](CCCCN)C(=O)N[C@H](C(=O)N[C@@H](CC(C)C)C(=O)N[C@@H](CO)C(=O)N[C@H](CCCCN)C(=O)N[C@H](C(=O)N[C@@H](CCCCN)C(=O)N[C@@H](CCCCN)C(=O)N[C@@H](CC(C)C)C(=O)N[C@@H](CC(C)C)C(N)=O)[C@@H](C)CC)[C@@H](C)CC [COMB1-PEG-DK5] (H-EGLEPG[AEEA]IKKILS[dK]IKKLL-NH2; N-terminus assumed)
MIC [1]: >190 µg/mL
MIC [2]: >190 µg/mL
MIC [3]: >190 µg/mL
MIC [4]: >190 µg/mL

CC[C@H](C)[C@H](N)C(=O)N[C@@H](CCCCN)C(=O)N[C@@H](CCCCN)C(=O)N[C@H](C(=O)N[C@@H](CC(C)C)C(=O)N[C@@H](CO)C(=O)N[C@H](CCCCN)C(=O)N[C@H](C(=O)N[C@@H](CCCCN)C(=O)N[C@@H](CCCCN)C(=O)N[C@@H](CC(C)C)C(=O)N[C@@H](CC(C)C)C(=O)NCCOCCOCC(=O)N[C@@H](Cc1ccc(O)cc1)C(=O)N[C@H](C)C(=O)NCC(=O)N[C@@H](Cc1ccccc1)C(=O)N[C@@H](CC(C)C)C(=O)N[C@@H](CCCNC(=N)N)C(N)=O)[C@@H](C)CC)[C@@H](C)CC [DK5-PEG-DAL] (H-IKKILS[dK]IKKLL[AEEA]Y[dA]GFLR-NH2; N-terminus and C-terminus assumed)
inhibition of USA300 growth relative to DAL-PEG-DK5 ([1]; comparison of MIC 160 vs 40 μg/mL): four times less
α-helical content ([5]; circular dichroism, 30 mM SDS in water): 20%

CC[C@H](C)[C@H](N)C(=O)N[C@@H](CCCCN)C(=O)N[C@@H](CCCCN)C(=O)N[C@H](C(=O)N[C@@H](CC(C)C)C(=O)N[C@@H](CO)C(=O)N[C@H](CCCCN)C(=O)N[C@H](C(=O)N[C@@H](CCCCN)C(=O)N[C@@H](CCCCN)C(=O)N[C@@H](CC(C)C)C(=O)N[C@@H](CC(C)C)C(N)=O)[C@@H](C)CC)[C@@H](C)CC [DK5] (H-IKKILS[dK]IKKLL-NH2; N-terminus assumed)
MIC [1]: >190 µg/mL
cationic charge [5]: +6

CC(=O)NC[C@H]1CN(c2ccc(N3CCOCC3)c(F)c2)C(=O)O1 [Linezolid, linezolid]
MIC [6]: 1 µg/mL (≈ 2.96 µM)

CN[C@H](CC(C)C)C(=O)N[C@H]1C(=O)N[C@@H](CC(N)=O)C(=O)N[C@H]2C(=O)N[C@H]3C(=O)N[C@H](C(=O)N[C@H](C(=O)O)c4cc(O)cc(O)c4-c4cc3ccc4O)[C@H](O)c3ccc(c(Cl)c3)Oc3cc2cc(c3O[C@@H]2O[C@H](CO)[C@@H](O)[C@H](O)[C@H]2O[C@H]2C[C@](C)(N)[C@H](O)[C@H](C)O2)Oc2ccc(cc2Cl)[C@H]1O [Vancomycin, vancomycin]
MIC [6]: 1 µg/mL (≈ 0.69 µM)

temporin A
MIC [7]: 8 µM
killed intracellular MRSA ([7]; at 2 × MIC): 20%

temporin B
MIC [7]: 16 µM
killed intracellular MRSA ([7]; at 4 × MIC): 40%
